From patent publication US20090288611A1, “Formula and method for treating water in fish tanks” (priority 2008, published 2009)

Tested on: captive live fish
Assay: Holding captive live fish in water treated with isoeugenol
Format: in vivo
Excerpt: The first key ingredient of the chemical mixture for treating the water in fish tanks of the present invention is isoeugenol (2-Methoxy-4-propenylphenol; 4-hydroxy-3-methoxy-1-propenylbenzene; 4-propenylguaiacol) C10H1202. Isoeugenol is an essential oil derived from oil of clove that has anesthetizing capabilities for fish in water. In the preferred embodiment, the formula for maintaining the life of fish contains about 43 ppm±10% of isoeugenol to slow the metabolism of captive live fish.
The benefits of treating the water in which fish are held or transported with isoeugenol are threefold. First, the metabolism of the fish is slowed and therefore the fish require less oxygen. The result is that more live fish may be held in smaller volumes of water. Also, live fish with a slower metabolism are easier to handle and fewer injuries are sustained by the fish.

[1] = overdoses up to 10 times the preferred amount of isoeugenol

Structure (SMILES): CC=Cc1ccc(O)c(OC)c1 [isoeugenol, 2-Methoxy-4-propenylphenol]
- effect on fish activity (sedation) (dosage rate of about 43 ppm±10% isoeugenol in the water): slow down fish activity sufficiently to allow handling of the live fish
- coagulation of hook wounds (fish held in water treated with isoeugenol, metabolism calmed): hook wounds appear to coagulate faster
- fish behaviour at overdose (equilibrium) [1]: some fish may still roll over and lose equilibrium
- harm to fish at overdose [1]: not harmful to the fish
